Consider one molecule from article PMC5218480 (PLoS ONE, 2017).

In the assay the test system is MV-4-11 cells. Briefly: Gene expression microarray analysis (Affymetrix PrimeView) and GSEA. Type of assay: cell-based, human. Set-up: RFU PODN (11730768_x_at) / Fold change /veh PODN (11730768_x_at) / RFU LINC00158 (11744669_a_at) / Fold change /veh LINC00158 (11744669_a_at) / RFU DUSP10 (11751237_a_at) / Fold change /veh DUSP10 (11751237_a_at) / RFU ID3 (11757404_x_at) / Fold change /veh ID3 (11757404_x_at) / RFU PLEKHG5 (11737974_s_at) / Fold change /veh PLEKHG5 (11737974_s_at) / RFU LRRC4B (11730491_at) / Fold change /veh LRRC4B (11730491_at) / RFU GIMAP4 (11747438_a_at) / Fold change /veh GIMAP4 (11747438_a_at) / RFU KRT8 (11758183_x_at) / Fold change /veh KRT8 (11758183_x_at) / RFU CNN1 (11734310_a_at) / Fold change /veh CNN1 (11734310_a_at) / RFU VPS37D (11726825_at) / Fold change /veh VPS37D (11726825_at) / RFU C10orf10 (11716522_x_at) / Fold change /veh C10orf10 (11716522_x_at) / RFU KIR2DL2 /// KIR2DL4 /// KIR2DL5A /// KIR2DL5B /// KIR2DS1 /// KIR2DS2 /// KIR2DS3 /// KIR2DS4 /// KIR3DL3 /// KIR3DL3 /// KIR3DS1 (11738374_at) / Fold change /veh KIR2DL2 /// KIR2DL4 /// KIR2DL5A /// KIR2DL5B /// KIR2DS1 /// KIR2DS2 /// KIR2DS3 /// KIR2DS4 /// KIR3DL3 /// KIR3DL3 /// KIR3DS1 (11738374_at) / RFU C1QL1 (11718748_at) / Fold change /veh C1QL1 (11718748_at) / RFU TMPRSS4 (11747572_a_at) / Fold change /veh TMPRSS4 (11747572_a_at) / RFU HAMP (11756126_x_at) / Fold change /veh HAMP (11756126_x_at) / RFU RNFT2 (11725882_a_at) / Fold change /veh RNFT2 (11725882_a_at) / RFU NR4A2 (11747474_a_at) / Fold change /veh NR4A2 (11747474_a_at) / RFU ABCC12 (11746883_a_at) / Fold change /veh ABCC12 (11746883_a_at) / RFU TMEM136 (11760407_x_at) / Fold change /veh TMEM136 (11760407_x_at) / RFU CLDN22 /// WWC2 (11732394_at) / Fold change /veh CLDN22 /// WWC2 (11732394_at) / RFU HLA-DPB1 (11760878_x_at) / Fold change /veh HLA-DPB1 (11760878_x_at) / RFU SPINT1 (11716480_a_at) / Fold change /veh SPINT1 (11716480_a_at) / RFU GAP43 (11754022_s_at) / Fold change /veh GAP43 (11754022_s_at) / RFU A4GNT (11735810_at) / Fold change /veh A4GNT (11735810_at) / RFU PRB3 (11715151_x_at) / Fold change /veh PRB3 (11715151_x_at) / RFU TUBB4B (11761932_at) / Fold change /veh TUBB4B (11761932_at) / RFU CAPN14 (11732068_a_at) / Fold change /veh CAPN14 (11732068_a_at) / RFU TMCC2 (11721928_a_at) / Fold change /veh TMCC2 (11721928_a_at) / RFU IRGQ (11745062_a_at) / Fold change /veh IRGQ (11745062_a_at) / RFU FAM174B (11720279_a_at) / Fold change /veh FAM174B (11720279_a_at) / RFU TMPRSS4 (11748680_a_at) / Fold change /veh TMPRSS4 (11748680_a_at) / RFU FAM212B (11763350_a_at) / Fold change /veh FAM212B (11763350_a_at) / RFU PLEKHG5 (11743358_a_at) / Fold change /veh PLEKHG5 (11743358_a_at) / RFU ZSCAN30 (11745921_a_at) / Fold change /veh ZSCAN30 (11745921_a_at) / RFU CMKLR1 (11741424_a_at) / Fold change /veh CMKLR1 (11741424_a_at) / RFU LOC101060620 /// MAPK8IP1 (11723275_at) / Fold change /veh LOC101060620 /// MAPK8IP1 (11723275_at) / RFU SPTSSB (11747773_x_at) / Fold change /veh SPTSSB (11747773_x_at) / RFU PRSS12 (11739890_at) / Fold change /veh PRSS12 (11739890_at) / RFU BIN1 (11741810_x_at) / Fold change /veh BIN1 (11741810_x_at) / RFU WNT11 (11732464_a_at) / Fold change /veh WNT11 (11732464_a_at) / RFU C10orf10 (11716521_a_at) / Fold change /veh C10orf10 (11716521_a_at) / RFU C5orf56 (11738089_at) / Fold change /veh C5orf56 (11738089_at) / RFU CYB561 (11721691_x_at) / Fold change /veh CYB561 (11721691_x_at) / RFU ANKRD19P (11752326_a_at) / Fold change /veh ANKRD19P (11752326_a_at) / RFU OR2T12 /// OR2T33 /// OR2T8 (11738714_s_at) / Fold change /veh OR2T12 /// OR2T33 /// OR2T8 (11738714_s_at) / RFU VCAN (11748164_a_at) / Fold change /veh VCAN (11748164_a_at) / RFU JSRP1 (11732532_at) / Fold change /veh JSRP1 (11732532_at) / RFU KRTAP10-11 (11738290_x_at) / Fold change /veh KRTAP10-11 (11738290_x_at) / RFU MYO3A (11730013_a_at) / Fold change /veh MYO3A (11730013_a_at) / RFU EBF3 (11725865_a_at) / Fold change /veh EBF3 (11725865_a_at) / RFU CAMK2N1 (11719241_x_at) / Fold change /veh CAMK2N1 (11719241_x_at) / RFU C5orf56 (11738088_a_at) / Fold change /veh C5orf56 (11738088_a_at) / RFU OLFML3 (11715873_a_at) / Fold change /veh OLFML3 (11715873_a_at) / RFU LOC100653217 /// NTM (11731650_a_at) / Fold change /veh LOC100653217 /// NTM (11731650_a_at) / RFU MAPK11 (11762145_a_at) / Fold change /veh MAPK11 (11762145_a_at) / RFU FIZ1 (11724087_x_at) / Fold change /veh FIZ1 (11724087_x_at) / RFU OASL (11726364_x_at) / Fold change /veh OASL (11726364_x_at) / RFU SOX15 (11748057_x_at) / Fold change /veh SOX15 (11748057_x_at) / RFU CD79A (11719716_a_at) / Fold change /veh CD79A (11719716_a_at) / RFU HIST1H1D (11736915_at) / Fold change /veh HIST1H1D (11736915_at) / RFU CASKIN2 (11723855_a_at) / Fold change /veh CASKIN2 (11723855_a_at) / RFU LOC730098 (11760151_x_at) / Fold change /veh LOC730098 (11760151_x_at) / RFU OR4N2 (11742367_at) / Fold change /veh OR4N2 (11742367_at) / RFU PRRT2 (11749266_a_at) / Fold change /veh PRRT2 (11749266_a_at) / RFU SNX32 (11753110_a_at) / Fold change /veh SNX32 (11753110_a_at) / RFU CDHR5 (11726645_a_at) / Fold change /veh CDHR5 (11726645_a_at) / RFU RCAN1 (11760418_a_at) / Fold change /veh RCAN1 (11760418_a_at) / RFU FAM167A (11723789_a_at) / Fold change /veh FAM167A (11723789_a_at) / RFU FAM26E (11764081_at) / Fold change /veh FAM26E (11764081_at) / RFU ISYNA1 (11749810_s_at) / Fold change /veh ISYNA1 (11749810_s_at) / RFU ACY1 (11761880_at) / Fold change /veh ACY1 (11761880_at) / RFU 11764098_at / Fold change /veh 11764098_at / RFU SAMD14 (11745864_x_at) / Fold change /veh SAMD14 (11745864_x_at) / RFU NPB (11741838_a_at) / Fold change /veh NPB (11741838_a_at) / RFU TMPRSS6 (11731388_a_at) / Fold change /veh TMPRSS6 (11731388_a_at) / RFU KRTAP10-2 (11738614_at) / Fold change /veh KRTAP10-2 (11738614_at) / RFU ARHGAP8 /// PRR5-ARHGAP8 (11727945_x_at) / Fold change /veh ARHGAP8 /// PRR5-ARHGAP8 (11727945_x_at) / RFU KRTAP5-7 /// NADSYN1 (11734609_at) / Fold change /veh KRTAP5-7 /// NADSYN1 (11734609_at) / RFU RASL12 (11751679_a_at) / Fold change /veh RASL12 (11751679_a_at) / RFU CDKN2B (11736163_a_at) / Fold change /veh CDKN2B (11736163_a_at) / RFU PRF1 (11729649_at) / Fold change /veh PRF1 (11729649_at) / RFU, ZNF638 /// ZNF638-IT1 / Fold change vs veh, ZNF638 /// ZNF638-IT1 / RFU, PANK3 / Fold change vs veh, PANK3 / RFU, SH3YL1 / Fold change vs veh, SH3YL1 / RFU, ZEB2 / Fold change vs veh, ZEB2 / RFU, NRIP1 / Fold change vs veh, NRIP1 / RFU, PTTG1IP / Fold change vs veh, PTTG1IP / RFU, CAPN2 / Fold change vs veh, CAPN2 / RFU, MED14 / Fold change vs veh, MED14 / RFU, SNORA58 / Fold change vs veh, SNORA58 / RFU, C1orf63 / Fold change vs veh, C1orf63 / RFU, LRRFIP1 / Fold change vs veh, LRRFIP1 / RFU, NDUFAF7 / Fold change vs veh, NDUFAF7 / RFU, SLC12A2 / Fold change vs veh, SLC12A2 / RFU, IBTK / Fold change vs veh, IBTK / RFU, ESF1 / Fold change vs veh, ESF1 / Fold change vs veh, TMEM50B / RFU, TAOK1 / Fold change vs veh, TAOK1 / RFU, ACBD3 / Fold change vs veh, ACBD3 / RFU, TMA16 / Fold change vs veh, TMA16 / RFU, RWDD3 / Fold change vs veh, RWDD3 / RFU, BCAT1 / Fold change vs veh, BCAT1 / RFU, EDEM3 / Fold change vs veh, EDEM3 / RFU, TMEM33 / Fold change vs veh, TMEM33 / RFU, WDR75 / Fold change vs veh, WDR75 / RFU, AHCTF1 / Fold change vs veh, AHCTF1 / RFU, TFRC / Fold change vs veh, TFRC / RFU, ZDHHC17 / Fold change vs veh, ZDHHC17 / RFU, NOM1 / Fold change vs veh, NOM1 / RFU, ARL8B / Fold change vs veh, ARL8B / RFU, ZBTB11 / Fold change vs veh, ZBTB11 / RFU, TAMM41 / Fold change vs veh, TAMM41 / RFU, KIAA1704 /// LOC100996395 / Fold change vs veh, KIAA1704 /// LOC100996395 / RFU, ING1 / Fold change vs veh, ING1 / RFU, TRMT61B / Fold change vs veh, TRMT61B / RFU, FUBP3 / Fold change vs veh, FUBP3 / RFU, TP53 / Fold change vs veh, TP53 / RFU, TNKS2 / Fold change vs veh, TNKS2 / RFU, ZFP14 / Fold change vs veh, ZFP14 / RFU, ACTR2 / Fold change vs veh, ACTR2 / RFU, PPP3R1 / Fold change vs veh, PPP3R1 / RFU, PIK3R1 / Fold change vs veh, PIK3R1 / RFU, HNRNPA1 / Fold change vs veh, HNRNPA1 / RFU, RNF170 / Fold change vs veh, RNF170 / RFU, ZNF28 / Fold change vs veh, ZNF28 / RFU, RNGTT / Fold change vs veh, RNGTT / RFU, OGT / Fold change vs veh, OGT / RFU, BRD1 / Fold change vs veh, BRD1 / RFU, MARS / Fold change vs veh, MARS / RFU, ZNF655 / Fold change vs veh, ZNF655 / RFU, FAHD1 / Fold change vs veh, FAHD1 / RFU, BDP1 / Fold change vs veh, BDP1 / RFU, LRRCC1 / Fold change vs veh, LRRCC1 / RFU, ARID1A / Fold change vs veh, ARID1A / RFU, ZNF146 / Fold change vs veh, ZNF146 / RFU, ZNF330 / Fold change vs veh, ZNF330 / RFU, GPN3 / Fold change vs veh, GPN3 / RFU, C9orf123 / Fold change vs veh, C9orf123 / RFU, N4BP2L2 / Fold change vs veh, N4BP2L2 / RFU, ARFIP1 / Fold change vs veh, ARFIP1 / RFU, FAM179B / Fold change vs veh, FAM179B / RFU, BCL10 / Fold change vs veh, BCL10 / RFU, UHRF1BP1L / Fold change vs veh, UHRF1BP1L / RFU, BET1 / Fold change vs veh, BET1 / RFU, CNOT2 / Fold change vs veh, CNOT2 / RFU, ZNF268 / Fold change vs veh, ZNF268 / Fold change vs veh, ZNF507 / RFU, DGCR2 / Fold change vs veh, DGCR2 / RFU, WDSUB1 / Fold change vs veh, WDSUB1 / Fold change vs veh, HSP90B1 /// MIR3652 / RFU, ADSS / Fold change vs veh, ADSS / RFU, GK / Fold change vs veh, GK / RFU, ZNF148 / Fold change vs veh, ZNF148 / RFU, TAF9 / Fold change vs veh, TAF9 / RFU, SLC1A5 / Fold change vs veh, SLC1A5 / RFU, SLMO2 / Fold change vs veh, SLMO2 / RFU, ABCC4 / Fold change vs veh, ABCC4 / RFU, LOC101060439 /// RAP1B / Fold change vs veh, LOC101060439 /// RAP1B / RFU, RFX7 / Fold change vs veh, RFX7 / RFU, GTPBP10 / Fold change vs veh, GTPBP10 / RFU, CNEP1R1 / Fold change vs veh, CNEP1R1 / RFU, BIVM-ERCC5 /// ERCC5 / Fold change vs veh, BIVM-ERCC5 /// ERCC5 / RFU, ILF3 / Fold change vs veh, ILF3 / RFU 11762660_at / Fold change /veh 11762660_at / RFU VCAN (11757783_s_at) / Fold change /veh VCAN (11757783_s_at) / RFU DDX43 (11728927_at) / Fold change /veh DDX43 (11728927_at) / RFU KRT8 (11758188_x_at) / Fold change /veh KRT8 (11758188_x_at) / RFU NKD1 (11759106_at) / Fold change /veh NKD1 (11759106_at) / RFU SRD5A1 (11742802_a_at) / Fold change /veh SRD5A1 (11742802_a_at) / RFU TPSAB1 /// TPSB2 (11721975_s_at) / Fold change /veh TPSAB1 /// TPSB2 (11721975_s_at) / RFU GSTM3 (11746129_a_at) / Fold change /veh GSTM3 (11746129_a_at) / RFU IL23R (11737362_x_at) / Fold change /veh IL23R (11737362_x_at) / RFU TMEM51 (11727254_a_at) / Fold change /veh TMEM51 (11727254_a_at) / RFU PIWIL2 (11732686_x_at) / Fold change /veh PIWIL2 (11732686_x_at) / RFU ORM1 (11744905_x_at) / Fold change /veh ORM1 (11744905_x_at) / RFU CCDC152 (11743942_at) / Fold change /veh CCDC152 (11743942_at) / RFU ECM1 (11717891_a_at) / Fold change /veh ECM1 (11717891_a_at) / RFU IL23R (11748794_a_at) / Fold change /veh IL23R (11748794_a_at) / RFU TNFAIP8L3 (11732012_x_at) / Fold change /veh TNFAIP8L3 (11732012_x_at) / RFU MBOAT4 (11741988_at) / Fold change /veh MBOAT4 (11741988_at) / RFU 11764193_at / Fold change /veh 11764193_at / RFU TMEM53 (11763286_at) / Fold change /veh TMEM53 (11763286_at) / RFU MAGEB2 (11727129_at) / Fold change /veh MAGEB2 (11727129_at) / RFU TMEM200A (11744735_a_at) / Fold change /veh TMEM200A (11744735_a_at) / RFU CCDC152 (11751479_a_at) / Fold change /veh CCDC152 (11751479_a_at) / RFU FAM211A (11726209_a_at) / Fold change /veh FAM211A (11726209_a_at) / RFU RGS16 (11746705_a_at) / Fold change /veh RGS16 (11746705_a_at) / RFU VCAN (11755009_s_at) / Fold change /veh VCAN (11755009_s_at) / RFU RHOB (11743442_s_at) / Fold change /veh RHOB (11743442_s_at) / RFU RGS16 (11720943_a_at) / Fold change /veh RGS16 (11720943_a_at) / RFU RGS16 (11720944_at) / Fold change /veh RGS16 (11720944_at) / RFU, VPS4B / Fold change vs veh, VPS4B / RFU, CREB1 / Fold change vs veh, CREB1 / RFU, DNAJC13 / Fold change vs veh, DNAJC13 / RFU, GNAQ / Fold change vs veh, GNAQ / RFU, CDK5R1 / Fold change vs veh, CDK5R1 / RFU, ZRANB3 / Fold change vs veh, ZRANB3 / RFU, CUL4A / Fold change vs veh, CUL4A / RFU, CCNY / Fold change vs veh, CCNY / RFU, UFL1 / Fold change vs veh, UFL1 / RFU, COG3 / Fold change vs veh, COG3 / RFU, DIAPH2 / Fold change vs veh, DIAPH2 / RFU, SKA2 / Fold change vs veh, SKA2 / RFU, AFF3 / Fold change vs veh, AFF3 / RFU, LMF1 / Fold change vs veh, LMF1 / RFU, IPO11 / Fold change vs veh, IPO11 / RFU, DFFB / Fold change vs veh, DFFB / RFU, FOXP1 / Fold change vs veh, FOXP1 / RFU, CARD8 / Fold change vs veh, CARD8 / RFU, STRN3 / Fold change vs veh, STRN3 / RFU, ADK / Fold change vs veh, ADK / RFU, RASSF2 / Fold change vs veh, RASSF2 / RFU, WIPF1 / Fold change vs veh, WIPF1 / RFU, LARP1B / Fold change vs veh, LARP1B / RFU, RASA1 / Fold change vs veh, RASA1 / RFU, RB1 / Fold change vs veh, RB1 / RFU, PPFIA1 / Fold change vs veh, PPFIA1 / RFU, MAT2A / Fold change vs veh, MAT2A / RFU, CCT5 / Fold change vs veh, CCT5 / RFU, WDR92 / Fold change vs veh, WDR92 / RFU, CUX1 / Fold change vs veh, CUX1 / RFU, TTC7A / Fold change vs veh, TTC7A / RFU, TMEM135 / Fold change vs veh, TMEM135 / RFU, DEPTOR / Fold change vs veh, DEPTOR / RFU, CPM / Fold change vs veh, CPM / RFU, DNAJB6 / Fold change vs veh, DNAJB6 / RFU, CACNA2D3 / Fold change vs veh, CACNA2D3 / RFU, DTX4 / Fold change vs veh, DTX4 / RFU, TFCP2 / Fold change vs veh, TFCP2 / RFU, GMCL1 /// GMCL1P1 / Fold change vs veh, GMCL1 /// GMCL1P1 / RFU, AEBP2 / Fold change vs veh, AEBP2 / RFU, SNHG1 /// SNORD22 /// SNORD25 /// SNORD26 /// SNORD27 /// SNORD28 /// SNORD29 /// SNORD31 / Fold change vs veh, SNHG1 /// SNORD22 /// SNORD25 /// SNORD26 /// SNORD27 /// SNORD28 /// SNORD29 /// SNORD31 / Fold change (Aza/veh), C12orf56 (ProbeSet 11735607_a_at) / Fold change (ACY-1035/veh), C12orf56 (ProbeSet 11735607_a_at) / Fold change (Aza/veh), FGFR1OP (ProbeSet 11751329_s_at) / Fold change (ACY-1035/veh), FGFR1OP (ProbeSet 11751329_s_at) / Fold change (Aza/veh), VPS36 (ProbeSet 11739960_a_at) / Fold change (ACY-1035/veh), VPS36 (ProbeSet 11739960_a_at) / RFU SYPL1 (11715823_x_at) / Fold change /veh SYPL1 (11715823_x_at) / RFU IGFBP7 (11715501_s_at) / Fold change /veh IGFBP7 (11715501_s_at) / RFU REEP3 (11722064_at) / Fold change /veh REEP3 (11722064_at) / RFU IGLL1 (11728026_x_at) / Fold change /veh IGLL1 (11728026_x_at): dose or concentration left out as unconfirmed. Conditions: MV-4-11 cells, 48 hours.

For `Nc1ncn([C@@H]2O[C@H](CO)[C@@H](O)[C@H]2O)c(=O)n1` [azacitidine], the “Fold change /veh FAM211A (11726209_a_at)” value is reported as 1.26.
